Three compounds from patent publication US20080234381A1, “Novel Trifluoromethoxy-Substituted Aryl Anilides” (Novo Nordisk A/S, priority 2005, published 2008) can be followed below.

By melting point is commonly meant the temperature of the solid-liquid transition. As for `N#Cc1ccc(NC(=O)c2ccc3ccccc3c2O)c(OC(F)(F)F)c1` [Example 1, 1-Hydroxy-naphthalene-2-carboxylic acid(4-cyano-2-trifluoromethoxy-phenyl)-amide], the melting point was determined as 178 °C.
Compound `N#Cc1ccc(NC(=O)c2cc3ccccc3cc2O)c(OC(F)(F)F)c1` [Example 3, 3-Hydroxy-naphthalene-2-carboxylic acid(4-cyano-2-trifluoromethoxy-phenyl)-amide] displayed a melting point of 248 °C.
As for `N#Cc1ccc(NC(=O)c2c(O)ccc3ccccc23)c(OC(F)(F)F)c1` [Example 2, 2-Hydroxy-naphthalene-1-carboxylic acid(4-cyano-2-trifluoromethoxy-phenyl)-amide], the figure is 169 °C.
